From patent US20250222109A1, “STRUCTURED LIPID COMPOSITIONS” (Universität Bern, priority 2022, published 2025)

Columns and labels:
[1] = tested on: T cell transfer colitis; experiment: T-cell transfer colitis; assay type: in vivo, mice
Source text: To induce T cell mediated colitis, CD4+ T cells were isolated from the spleen of C57/BL6 mice (Strain #: 000664; RRID:IMSR_JAX: 000664 ex. Jackson laboratories) using the CD4 T cell isolation kit from Stemcell Technologies (#19852; Cologne, Germany) and subsequently naïve T helper cells (CD3+, CD4+, CD25low, […], CD44low cells) were sorted on a FACS Aria III (Becton Dickinson; Eysins, Switzerland) as described previously (D. V. Ostanin, et al., T cell transfer model of chronic colitis: Concepts, considerations, and tricks of the tradeAm. J. Physiol.—Gastrointest. Liver Physiol. 296, 135-146 (2009); M. R. Spalinger, et al., PTPN2 controls differentiation of CD4+ T cells and limits intestinal inflammation and intestinal dysbiosis, Mucosal Immunol. 8, 918-929 (2015); M. R. Spalinger, et al., Loss of PTPN22 Promotes Intestinal Inflammation by Compromising Granulocyte-mediated Antibacterial Defence, J. Crohn's Colitis 15, 2118-2130 (2021)). 12-15 week old male and female Rag^−/− mice in the C57/BL6 background (model RAGN12 (B6.129S6-Rag2^tm1Fwa N12) ex. Taconic) were injected intraperitoneally with 2.5×10^5 naïve T helper cells (all methods used were approved under licence no. ZH043/2021). Starting on day 2 post T cell injection, the mice received one daily rectal instillation (100 μL) of empty TIF-Gels, TAC-loaded TIF-Gels or TAC in vehicle solution (1% […] in distilled water). Weight development and disease activity scores were measured on a daily basis. On the last day of the experiment (day 18), the mice were anaesthetised using a mixture of ketamine 90-120 mg/kg bodyweight (Vétoquinol, Bern, Switzerland) and xylazine 8 mg/kg bodyweight (Bayer, Lyssach, Switzerland), and were subjected to mouse endoscopy to assess the extent of endoscopic colitis (M. R. Spalinger, et al., Protein tyrosine phosphatase non-receptor type 22 modulates colitis in a microbiota-dependent manner, J. Clin. Invest. 129, 2527-2541 (2019)) using the following parameters: 1) thickening of the colon wall, 2) vascularisation/bleeding, 3) extent of fibrin deposits, 4) granular appearance of the colon wall, 5) stool consistency. Each parameter was given a score from 0 (normal) to 3 (most severe appearance), resulting in a maximal total score of 15. After colonoscopy, the mice were sacrificed and colon tissue harvested for histology and isolation of lamina propria immune cells. Immune cells were isolated from the colon, mesenteric lymph nodes and the spleen, and analysed for immune cell subsets (M. R. Spalinger, et al., (2019) Loss of PTPN22 abrogates the beneficial effect of cohousing-mediated fecal microbiota transfer in murine colitis, Mucosal Immunol. 12, 1336-1347).
To assess the microscopic extent of colitis, formalin-fixed, paraffin embedded sections of the most distal 1.5 cm of the colon were subjected to hematoxilin and eosin (H&E) staining using standard protocols (M. R. Spalinger, et al. (2019)). The sections were analysed by two blinded scientists for the extent of epithelial damage (score 0-4) and infiltration of immune cells (score 0-4) resulting in a maximal possible score of 8. Images were taken using a Zeiss Axio Imager.Z2 microscope (Zeiss), equipped with an AxioCam HRc (Zeiss, Jena, Germany) camera and ZEN imaging software (Zeiss, Germany).
To analyse cytokine levels in the colons, colon pieces were lysed in PBS (1 ml PBS/[…] tissue) using a GentleMACS device from Miltenyi Biotec (Miltenyi Biotec, Bergisch Gladbach, Germany). Lysates were then analysed for cytokines using the Bio-Plex Pro Mouse Cytokine 23-plex Assay from Bio-Rad (Hercules, CA) according to the manufacturer's instructions.
TIF-Gel acts as a platform able to host and release molecules with different polarity. Thus, the hydrophobic TAC was loaded in to TIF-Gel and its ability to reduce colitis severity was assessed also using a model of T cell mediated colitis, namely T cell transfer colitis. […]

[2] = SAXS phase identification of MLO-water mesophases (TIF-Gel); assay type: physicochemical; settings: 10% w/w of drug; lamellar at room temperature, cubic (Ia3d) at 38° C.
Description: SAXS measurements were used to determine the phase identity and symmetry of the produced LMPs. Measurements were performed on a Bruker AXS Micro, with a microfocused X-ray source, operating at voltage and filament current of 50 kV and 1000 μA, respectively. The Cu Kα radiation (λCu Kα=1.5418 Å) was collimated by a 2D Kratky collimator, and the data were collected by a 2D Pilatus 100K detector. The scattering vector Q=(4π/λ) sin θ, with 2θ being the scattering angle, was calibrated using silver behenate. Data were collected and azimuthally averaged using the Saxsgui software to yield 1D intensity vs. scattering vector Q, with a Q range from 0.001 to 0.5 Å^−1. For all measurements the samples were placed inside a stainless-steel cell between two thin replaceable mica sheets and sealed by an O-ring, with a sample volume of 10 μL and a thickness of ˜1 mm. Measurements were performed at 25° C., 30° C., 34° C., 36° C. and 38° C. Samples were equilibrated for 10 min before measurements whereas scattered intensity was collected over 30 min and over 60 min in case of lamellar phase. On the other hand, for the kinetic study, the sample was pre equilibrated at 25° C. and inserted in the sample holder kept at 38° C. and the scattered intensity collected over 5 min. To determine the structural parameters such as the size of the water channels, SAXS data information on the lattice were combined with the composition of the samples (R. Mezzenga, et al., Shear rheology of lyotropic liquid crystals: a case study, Langmuir 21, 3322-3333 (2005)).
MLO was used as the lipid component of the mesophases and mixed with weighed amounts of drugs (10% w/w) in sealed Pyrex tubes and alternatively centrifuging (10 min, 5000 g) several times at room temperature until a homogenous mixture was obtained. The mesophase was then equilibrated for 48 h at room temperature in the dark (see, FIGS. 1A and 1B).
Firstly, small angle X-ray scattering (SAXS) measurements were used to determine the optimal amount of water needed to obtain a lamellar phase which provides a transition to a cubic at 38° C. (FIGS. 2B and 2C). The X-ray beam directed at the gel results in a scattering pattern with a set of maxima, that correspond to sharp Bragg reflections characteristic of the long-range positional order. The sequence of Bragg reflections (and their ratio; listed in FIG. 2A) identifies the symmetry of the mesophase studied (See also FIGS. 1A and 1B).

[3] = daily rectal instillation 100 μL

What does the source list for `C=CC[C@@H]1/C=C(\C)C[C@H](C)C[C@H](OC)[C@H]2O[C@@](O)(C(=O)C(=O)N3CCCC[C@H]3C(=O)O[C@H](/C(C)=C/[C@@H]3CC[C@@H](O)[C@H](OC)C3)[C@H](C)[C@@H](O)CC1=O)[C@H](C)C[C@@H]2OC` [TAC, tacrolimus]?
levels of IFN-γ ([1]; colonic tissues): reduced levels; levels of IL-17 ([1]; colonic tissues): reduced levels; first signs of colitis, day post T cell transfer ([1]; daily rectal instillation): ~10 days; diarrhoea / disease activity score [1, 3]: signs of diarrhoea; weight development [1, 3]: progressive weight loss; relative abundance of T cells ([1]; lamina propria, mesenteric lymph nodes and spleen): reduced the relative abundance of T cells; abundance of FOXP3+ (regulatory) T cells ([1]; mouse, in vivo): not much effect; Th1 cells ([1]; vs empty TIF-Gels): reduced; Th17 cells ([1]; vs empty TIF-Gels): reduced; colon length ([1]; vs empty TIF-Gels): longer colons; spleen weight ([1]; vs empty TIF-Gels): reduced spleen weight; effect of drug on phase identity and transition temperature of the gel [2]: did not affect the phase identity and the transition temperature
